Data on twelve compounds can be found in patent publication US5705662A, “17-(3-imino-2-alkylpropenyl)-5β, 14β-androstane derivatives active on the cardiovascular system, processes for their preparation and pharmaceutical compositions containing same” (Sigma-Tau Industrie Farmaceutiche Riunite S.p.A., priority 1994, dated 1998).

In test [1] the test system is Na^+,K^+ -ATPase. The following applies: J. Med. Chem. 1978, 21, 284; Quant. Struct.-Act. Relat. 1988, 7, 160; DE 4,227,605; DE 4,227,626; cited from earlier work.
For test [2] the following is noted: J. Med. Chem. 1978, 21, 284; Quant. Struct.-Act. Relat. 1988, 7, 160; cited from earlier work.
In test [3] the target is T1, Na^+,K^+ -ATPase (Canis lupus familiaris, UniProt P50997).
T1 construct: Na^+,K^+ -ATPase receptor purified according to Jorghensen; from tissue
As to the kind of experiment: inhibition of the activity of the purified Na+,K+-ATPase (% hydrolysis of 32P-ATP). It is filed as biochemical. The text has this:
(§1) To test the affinity for the receptor site of the Na^+,K^+ -ATPase and the agonist or antagonist activity on the enzyme, the following tests were used:
b) inhibition of the activity of the purified Na^+,K^+ -ATPase measured as % of hydrolysis of ^32 P-ATP in presence and in absence of the tested compound (Doucet A. et al. Am. J. Physiol., 1986, 251, F851)

The target in test [4] is T1, Na^+,K^+ -ATPase. As to the kind of experiment: displacement of the specific 3H-ouabain binding from the purified Na+,K+-ATPase receptor.
Description: as §1
a) displacement of the specific ^3 H-ouabain binding from the Na^+,K^+ -ATPase receptor purified according to Jorghensen (Jorghensen P., BBA. 1974, 356, 36) and Erdmann (Erdmann E. et al., Arzneim. Forsh., 1984, 34, 1314);

Test [5] is described as follows: effect of 5 week-treatment on the development of hypertension in MHS rats (SBP and HR, tail cuff method). The test is classed as in vivo, rat (MHS). The following applies: 10 mg/Kg/os daily in Methocel 0.5% w/v, 5 weeks, controls 375 +/- 7.3. The method, then: (§2) Systolic blood pressure (SBP) and heart rate (HR) were measured. by the tail cuff method, in young prehypertensive male rats (MHS or SHR) strains before the development of hypertension (4 weeks of age) for recording the basal values of SBP. Groups of 7 rats were formed and subdivided in control and treated groups. The compound, suspended in Methocel 0.5 % (w/v). was orally given daily for at least 5 weeks to the treated groups. The control group received only Methocel.
(§3) SBP and HR were measured weekly 6 and 24 hrs after treatment. After 5 weeks of treatment, when hypertension was fully developed in the control group (9 weeks of age), washout was started for at least one week, to verify whether the treatment maintained blood pressure low or reestablished the basal values. […] (Takeda K. et al., Japan J. Pharmacol., 1979, 29,171: Takeda K. et al. Japan J. Pharmacol., 1982, 32, 283; Richer C. et al. Eur. J. Pharmacol, 1978, 47,393).

In test [6] the test system is spontaneous hypertensive rats (MHS). Described as above. It is filed as in vivo, rat (MHS). The settings on record: 10 mg/Kg/os daily in Methocel 0.5% w/v, 5 weeks, controls 171 +/- 4.5. The method, then:
as §2, §3

Where [7] appears, read: purified Na+,K+-ATPase, 32P-ATP hydrolysis, read-out: Inhibitory Activity log IC50 (converted).
Setting [8] is: 3H-ouabain displacement, purified Na+,K+-ATPase, read-out: Binding ^3 H-Ouab. Displacement log IC50 (converted).

Turning to `C[C@]12CC[C@H](O)C[C@H]1CC[C@@H]1[C@@H]2CC[C@]2(C)C(=NNC(=N)N)CC[C@]12O` [17-guanidinoimino-5β-androstane-3β,14β-diol], in the test on Na^+,K^+ -ATPase [1], the “inhibition of Na+,K+-ATPase (in words)” value is on record as “weak inhibitors of Na^+,K^+ -ATPase”. Moreover, in test [2], the “positive inotropic activity (in words)” value is reported as “weak positive inotropic agents”.
On to `C[C@]12CC[C@H](O)C[C@H]1CC[C@@H]1[C@@H]2CC[C@]2(C)[C@@H](C=NNC(=N)N)CC[C@]12O` [17β-guanidinoiminomethyl-5β-androstane-3β,14β-diol], for which the “inhibition of Na+,K+-ATPase (in words)” value in the test with Na^+,K^+ -ATPase [1] is “weak inhibitors of Na^+,K^+ -ATPase”. Moreover, the “positive inotropic activity (in words)” value in test [2] is reported as “weak positive inotropic agents”.
As for `CC(/C=N/NC(=N)N)=C\[C@H]1CC[C@]2(O)[C@@H]3CC[C@@H]4C[C@@H](O)CC[C@]4(C)[C@H]3CC[C@]12C` [Comp. I-aa, (E,E)-17β-(3-Guanidinoimino-2-methyl-1-propenyl)-5β-androstane-3β,14β-diol], the IC50 at Na^+,K^+ -ATPase [3] (setting [7]) is 0.251 µM; on Na^+,K^+ -ATPase [4] (setting [8]), 0.0316 µM. Moreover, in test [5], the HR is reported as 374 +/- 9.5 beats/min. In addition, the SBP in test [6] was 148 +/- 5.7 mm Hg.
On the same counts, the results for `CC(/C=N/OCCN)=C\[C@H]1CC[C@]2(O)[C@@H]3CC[C@@H]4C[C@@H](O)CC[C@]4(C)[C@H]3CC[C@]12C` [Comp. I-af, (E,E)-17β-[3-(2-Aminoethoxyimino)-2-methyl-1-propenyl]-5β-androstone-3β,14β-diol] are 0.0316 µM, 0.02 µM, 380 +/- 3.9 beats/min and 146 +/- 6.1 mm Hg.
For `CC(/C=N/OCCN)=C\[C@H]1CC[C@]2(O)[C@@H]3CC[C@@H]4C[C@@H](OCCN)CC[C@]4(C)[C@H]3CC[C@]12C` [Comp. I-ay, (E,E)-3β-(2-Aminoethoxy)-17β-[3-(2-aminoethoxyimino)-2-methyl-1-propenyl]-5β-androstane-14β-ol], the IC50 on Na^+,K^+ -ATPase [3] (setting [7]) was 0.0316 µM; at Na^+,K^+ -ATPase [4] (setting [8]) it was 0.0251 µM.
On the same counts, the results for `CC(/C=N/NC(=N)N)=C\[C@H]1CC[C@]2(O)[C@@H]3CC[C@@H]4C[C@@H](OCCCN)CC[C@]4(C)[C@H]3CC[C@]12C` [Comp. I-az] are 0.0316 µM and 0.0251 µM.
For `CC(/C=N/OCCN)=C\[C@H]1CC[C@]2(O)[C@@H]3CC[C@@H]4C[C@@H](OCCCN)CC[C@]4(C)[C@H]3CC[C@]12C` [Comp. I-ba], in that order: 0.0398 µM and 0.02 µM.
With `CC(/C=N/NC(=N)N)=C\[C@H]1CC[C@]2(O)[C@@H]3CC[C@@H]4C[C@H](O)CC[C@]4(C)[C@H]3CC[C@]12C` [Comp. I-bb, (E,E)-17β-(3-Guanidinoimino-2-methyl-1-propenyl)-5β-androstane-3α,14β-diol], the IC50 against Na^+,K^+ -ATPase [3] was 3.16 µM; on Na^+,K^+ -ATPase [4], 0.631 µM.
For `CC(/C=N/OCCN)=C\[C@H]1CC[C@]2(O)[C@@H]3CC[C@@H]4C[C@H](O)CC[C@]4(C)[C@H]3CC[C@]12C` [Comp. I-bc, (E,E)-17β-[3-(2-Aminoethoxyimino)-2-methyl-1-propenyl]-5β-androstane-3α,14β-diol], in that order: 2.51 µM and 0.501 µM.
Take `CC(/C=N/OCCN)=C\[C@H]1CC[C@]2(O)[C@@H]3CC[C@@H]4C[C@H](OCCN5CCCC5)CC[C@]4(C)[C@H]3CC[C@]12C` [Comp. I-bd]: the IC50 is 3.16 µM at Na^+,K^+ -ATPase [3] and 0.501 µM at Na^+,K^+ -ATPase [4].
For `CC(/C=N/OCCN)=C\[C@H]1CC[C@]2(O)[C@@H]3CC[C@@H]4C[C@H](OCCCN)CC[C@]4(C)[C@H]3CC[C@]12C` [Comp. I-be, (E,E)-3α-(3-Aminopropoxy)-17β-[3-(2-aminoethoxyimino)-2-methyl-1-propenyl]-5β-androstane-14β-ol], in that order: 3.98 µM and 0.631 µM.
With `CC(/C=N/NC(=N)N)=C\[C@H]1CC[C@]2(O)[C@@H]3CC[C@@H]4C[C@@H](OCCN)CC[C@]4(C)[C@H]3CC[C@]12C` [I-ax], the IC50 at Na^+,K^+ -ATPase [3] (setting [7]) is 0.0398 µM; on Na^+,K^+ -ATPase [4] (setting [8]), 0.0251 µM.

One may read the IC50 as the concentration that gives 50% inhibition.
